# Laboratory results taken from paper PMC4933954, “Navigation in bile acid chemical space: discovery of novel FXR and GPBAR1 ligands” (Scientific Reports, 2016).
# “And” between values parts separate entries of the source, which are not always exact repeats. Identical values can stand only once.
# Assays:
# PBC patients = tested on: PBC patients; set-up: method as in PMID 25500425; conditions: cited from earlier work
# [1] = tested on: animal models of non-obstructive cholestasis; set-up: method as in PMID 26177448; conditions: cited from earlier work
# GPBAR1 = tested on: GPBAR1; set-up: method as in PMID 25247751; conditions: cited from earlier work
# FXR [2] = target: T1, FXR (Homo sapiens, UniProt Q96RI1); set-up: method as in PMID 25247751; conditions: any concentration tested; cited from earlier work
# T1 sequence (Q96RI1 1-486): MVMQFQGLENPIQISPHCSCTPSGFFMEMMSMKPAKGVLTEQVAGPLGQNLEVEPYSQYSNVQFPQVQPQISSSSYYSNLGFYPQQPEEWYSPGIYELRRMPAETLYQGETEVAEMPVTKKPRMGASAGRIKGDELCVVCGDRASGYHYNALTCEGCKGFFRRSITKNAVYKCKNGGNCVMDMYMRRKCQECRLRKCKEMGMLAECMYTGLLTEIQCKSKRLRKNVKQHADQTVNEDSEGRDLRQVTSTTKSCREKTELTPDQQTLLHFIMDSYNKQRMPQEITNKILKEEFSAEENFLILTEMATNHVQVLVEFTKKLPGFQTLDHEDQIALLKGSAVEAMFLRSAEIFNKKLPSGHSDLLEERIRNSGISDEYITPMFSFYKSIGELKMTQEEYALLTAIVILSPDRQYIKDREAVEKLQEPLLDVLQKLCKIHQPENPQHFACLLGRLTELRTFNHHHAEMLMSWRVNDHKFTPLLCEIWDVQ
# T1 sequence (P19793 1-462 partner): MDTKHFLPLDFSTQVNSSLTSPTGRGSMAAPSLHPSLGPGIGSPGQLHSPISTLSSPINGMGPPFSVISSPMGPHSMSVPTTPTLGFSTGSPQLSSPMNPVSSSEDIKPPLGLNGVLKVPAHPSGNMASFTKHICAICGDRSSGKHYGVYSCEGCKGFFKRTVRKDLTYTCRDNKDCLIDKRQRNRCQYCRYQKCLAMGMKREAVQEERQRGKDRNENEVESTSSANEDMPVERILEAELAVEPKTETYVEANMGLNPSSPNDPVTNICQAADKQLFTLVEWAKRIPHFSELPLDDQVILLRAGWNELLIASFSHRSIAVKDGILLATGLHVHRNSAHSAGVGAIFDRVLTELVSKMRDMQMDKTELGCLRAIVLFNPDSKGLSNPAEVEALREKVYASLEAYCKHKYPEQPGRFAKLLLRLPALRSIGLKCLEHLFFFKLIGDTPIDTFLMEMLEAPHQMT
# [3] = tested on: rodent models of portal hypertension; set-up: method as in PMID 26539823; conditions: cited from earlier work
# human GPBAR1 = target: T2, human GPBAR1 (Homo sapiens, UniProt Q8TDU6); experiment: GPBAR1 transactivation (cAMP responsive element luciferase reporter) in transfected HEK-293T cells; format: cell-based; conditions: for EC50: HEK-293T cells transfected with GPBAR1, concentration-response, mean ± standard error
# T2 construct: expressed in transfected cells; host or cells: HEK-293T
# T2 sequence (Q8TDU6 1-330): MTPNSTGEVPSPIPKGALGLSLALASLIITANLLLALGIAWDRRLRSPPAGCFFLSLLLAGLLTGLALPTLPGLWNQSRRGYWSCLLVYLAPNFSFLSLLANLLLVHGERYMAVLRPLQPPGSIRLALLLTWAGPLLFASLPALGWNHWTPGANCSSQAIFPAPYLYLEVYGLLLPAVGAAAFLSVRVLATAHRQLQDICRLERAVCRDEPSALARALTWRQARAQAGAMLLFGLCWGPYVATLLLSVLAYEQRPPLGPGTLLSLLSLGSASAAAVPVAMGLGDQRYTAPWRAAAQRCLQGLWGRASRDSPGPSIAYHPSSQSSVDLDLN
# Source text: Luciferase activities were normalized with Renilla activities.
# [4] = target: T3, GST-fusion FXR-LBD / SRC-1 peptide (Homo sapiens, UniProt Q96RI1); experiment: Alpha screen coactivator recruitment assay, direct interaction of FXR with SRC-1; format: biochemical; conditions: ligands at 2 μM, effect of 6-ECDCA (3) settled as 100%
# T3 construct: 10 nM of purified GST-tagged FXR-LBD protein
# T3 sequence (Q96RI1 262-486 limits assumed): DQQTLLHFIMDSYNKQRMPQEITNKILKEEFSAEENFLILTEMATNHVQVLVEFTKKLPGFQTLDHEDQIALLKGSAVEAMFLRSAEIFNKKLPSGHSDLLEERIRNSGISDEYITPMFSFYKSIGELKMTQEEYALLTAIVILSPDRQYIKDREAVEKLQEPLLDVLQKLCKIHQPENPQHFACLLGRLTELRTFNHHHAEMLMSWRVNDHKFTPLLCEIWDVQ
# T3 sequence (Q15788 676-700 partner limits assumed): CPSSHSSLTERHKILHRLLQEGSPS
# Method: CDCA (1) and 6-ECDCA (3) were used as positive controls at 2 μM concentration and the effect of 6-ECDCA (3) was settled as 100%. […] Results are expressed as percentage of the effect of 3 arbitrarily settled as 100%. NT is referred to the experiment in absence of ligand. […] (B,C) Real-time PCR analysis of mRNA expression on FXR target genes BSEP (B), and OSTα (C) in HepG2 cells primed with 10 μM of compound 19. CDCA (1) was used as a positive control at 10 μM. (D) Real-time PCR analysis of mRNA expression of GPBAR1 target gene Pro-glucagon in GLUTAg cells stimulated with 10 μM of compounds 7 and 19, and TLCA (2) used as a positive control at 10 μM. Values are normalized to GAPDH and are expressed relative to those of not treated cells (NT) which are arbitrarily settled to 1. The relative mRNA expression is expressed as 2(-ΔΔCt). Anti-GST-coated acceptor beads were used to capture the GST-fusion FXR-LBD whereas the biotinylated-SRC-1 peptide was captured by the streptavidin donor beads. Upon illumination at 680 nm, chemical energy is transferred from donor to acceptor beads across the complex streptavidin-Donor/Src-1-Biotin/[…]-LBD/Anti-GST-Acceptor and a signal is produced. The assay was performed in white, low-volume, 384-well Optiplates (PerkinElmer) using a final volume of 25 μL containing final concentrations of 10 nM of purified GST-tagged FXR-LBD protein, 30 nM biotinylated Src-1 peptide, 20 μg/mL anti-GST acceptor beads acceptor beads and 10 μg/mL of streptavidin donor bead (PerkinElmer). The assay buffer contained 50 mM Tris (pH 7.4), 50 mM KCl, 0.1% BSA, and 1 mM DTT. The stimulation times with 1 μL of tested compound (dissolved in 50% DMSO/H2O) were fixed to 30 min at room temperature. The concentration of DMSO in each well was maintained at a final concentration of […]. After the addition of the detection mix (acceptor and donor beads) the plates were incubated in the dark for 4 h at room temperature and then were read in Envision microplate analyzer (PerkinElmer).
# [5] = tested on: GPBAR1 target gene Pro-glucagon in GLUTAg cells; experiment: Real-time PCR of GPBAR1 target gene Pro-glucagon in GLUTAg cells; format: cell-based, mouse; conditions: 10 μM, relative to not treated cells
# Method: (§1) Figure 10 (A) Coactivator recruitment assay measuring a direct interaction of FXR with SRC-1; ligands at 2 μM. Results are expressed as percentage of the effect of 3 arbitrarily settled as 100%. NT is referred to the experiment in absence of ligand. […] (B,C) Real-time PCR analysis of mRNA expression on FXR target genes BSEP (B), and OSTα (C) in HepG2 cells primed with 10 μM of compound 19. CDCA (1) was used as a positive control at 10 μM. (D) Real-time PCR analysis of mRNA expression of GPBAR1 target gene Pro-glucagon in GLUTAg cells stimulated with 10 μM of compounds 7 and 19, and TLCA (2) used as a positive control at 10 μM. Values are normalized to GAPDH and are expressed relative to those of not treated cells (NT) which are arbitrarily settled to 1. The relative mRNA expression is expressed as 2(−ΔΔCt).
# (§2) Total RNA was isolated from HepG2 or GLUTAg cells using the TRIzol reagent according to the manufacturer’s specifications (Invitrogen). One microgram of purified RNA was treated with DNase-I and reverse transcribed with Superscript II (Invitrogen). For Real Time PCR, 10 ng template was dissolved in 25 μL containing 200 nmol/L of each primer and 12.5 μL of 2 × SYBR FAST Universal ready mix (Invitrogen). […] The relative mRNA expression was calculated and expressed as 2-(ΔΔCt). […]
# FXR [6] = target: T1, FXR; experiment: FXR transactivation luciferase reporter assay in transfected HepG2 cells; conditions: HepG2 cells transfected with FXR; for EC50: EC50 FXR transactivation, 100 nM to 25 μM, mean ± standard error
# Method: (A) HepG2 cells were transfected with pSG5-FXR, pSG5-RXR, pCMV-βgal, and p(hsp27)TKLUC vectors. […] CDCA (1, 10 μM) and 6-ECDCA (3, 1 μM) were used as a positive control. […] Cells were stimulated with 7–19 (10 μM). […] In both panels, results are expressed as mean ± standard error. *p < 0.05 versus not treated cells (NT).
# HepG2 cells were transfected with FXR as described above and used in a luciferase reporter assay. […] Results are expressed as mean ± standard error.
# For FXR and GP BAR1 mediated transactivations, HepG2 cells and HEK293T cells were transfected as described previously[25]. […] After treatments, 20 μL of cellular lysates were read using Dual Luciferase Reporter Assay System (Promega Italia s.r.l., Milan, Italy) according manufacturer specifications using the Glomax 20/20 luminometer (Promega Italia s.r.l., Milan, Italy). […] At 18 h post stimulations, cellular lysates were assayed for luciferase and Renilla activities using the Dual-Luciferase Reporter assay system (E1980, Promega). Luminescence was measured using Glomax 20/20 luminometer (Promega). Luciferase activities were normalized with Renilla activities.
# [7] = tested on: FXR target genes BSEP and OSTα in HepG2 cells; experiment: Real-time PCR of FXR target genes BSEP and OSTα in HepG2 cells; format: cell-based, human; conditions: 10 μM, relative to not treated cells
# Method: as §1, §2
structure (smiles),measurement,setting,value
"CC[C@H]1[C@@H](O)[C@@H]2[C@H](CC[C@]3(C)[C@@H]([C@H](C)CCC(=O)O)CC[C@@H]23)[C@@]2(C)CC[C@@H](O)C[C@@H]12 [6-ECDCA/OCA, 6-ECDCA]",Patients who experienced the symptoms (pruritus),PBC patients,approx. 80%
same,PBC patients who halted the treatment due to the severity of itching,PBC patients; one trial,up to 40%
CC[C@H]1[C@@H](O)[C@@H]2[C@H](CC[C@]3(C)[C@@H]([C@H](C)CCO)CC[C@@H]23)[C@@]2(C)CC[C@@H](O)C[C@@H]12 [compound 5],Liver damage and itching,[1],attenuates liver damage in animal models of non-obstructive cholestasis without inducing itching
"CC[C@@H]1[C@H](O)[C@@H]2[C@H](CC[C@]3(C)[C@@H]([C@H](C)CCCO)CC[C@@H]23)[C@@]2(C)CC[C@@H](O)C[C@@H]12 [compound 6, EUDCOH]",EC50,GPBAR1,1030 nM
same,FXR transactivation,FXR [2],failing in transactivating FXR at any concentration tested
same,Portal pressure,[3],exerts portal pressure-lowering effects
CCC1C(O)C2C3CCC(C(C)CCO)C3(C)CCC2C2(C)CCC(O)CC12 (stereo not drawn) [compound 7],GPBAR1 potency compared with TLCA (2),"human GPBAR1; HEK-293T cells transfected with GPBAR1, 10 μM",potency similar to that of TLCA
same,GPBAR1 transactivation (cAMP-luciferase reporter gene),"human GPBAR1; HEK-293T cells transfected with GPBAR1, compounds at 10 μM",inducers of cAMP-luciferase reporter gene
same,EC50,human GPBAR1,910 nM
same,Recruitment of SRC-1 co-activator to FXR,[4],completely unable to recruit SRC-1
same,Pro-glucagon gene expression,[5],increased pro-glucagon gene expression
CC[C@@H]1[C@@H](O)C2C3CC[C@H]([C@H](C)CCO)[C@@]3(C)CCC2[C@@]2(C)CC[C@@H](O)C[C@@H]12 (stereo partly drawn) [compound 9],Recruitment of SRC-1 co-activator to FXR,[4],completely unable to recruit SRC-1
C/C=C1/[C@H](O)C2C3CC[C@H]([C@H](C)CCO)[C@@]3(C)CCC2[C@@]2(C)CC[C@@H](O)C[C@@H]12 (stereo partly drawn) [compound 10],Recruitment of SRC-1 co-activator to FXR,[4],completely unable to recruit SRC-1
CCC1C(O)C2C3CCC(C(C)CC(=O)O)C3(C)CCC2C2(C)CCCCC12 (stereo not drawn) [compound 13],EC50,human GPBAR1,4300 nM
same,EC50,FXR [6],2300 nM and 2320 nM
CCC1C(O)C2C3CCC(C(C)CCO)C3(C)CCC2C2(C)CCC(O)CC12 (stereo not drawn) [compound 14],EC50,human GPBAR1,1000 nM and 1020 nM
same,EC50,FXR [6],5300 nM
CCC1C(O)C2C3CCC(C(C)CCCCCOS(=O)(=O)O)C3(C)CCC2C2(C)CCC(O)CC12 (stereo not drawn) [compound 19],EC50,human GPBAR1,950 nM
same,Recruitment of SRC-1 co-activator to FXR,[4],"at least comparable, if not better, to that measured for 3"
same,BSEP mRNA upregulation,[7],2 fold
same,OSTα mRNA expression,[7],robust induction of OSTα mRNA
same,Pro-glucagon gene expression,[5],increased pro-glucagon gene expression
same,EC50,FXR [6],1700 nM
same,FXR transactivation (luciferase reporter),FXR [6]; compounds at 10 μM,the most potent FXR agonist generated in this study
